“Also recorded” adds a separate entry of the source.
Tests used:
R-catcher [1] = test: R-catcher pulldown in +/+ and ATE1-/- MEFs; format: binding; details: +/+ versus ATE1-/- MEFs, MG132 plus TG, 9 h, Fig. 6b
Procedure: (§1) For small-scale R-catcher pull-down assays, 300 µg of purified R-catcher was conjugated with 120 µl of Strep-Tactin sepharose resin by incubating overnight at 4 °C. To test R-catcher’s ability to capture known arginylated proteins, such as R-BiP, R-PDI, R-nsP4 and R-RGS4, plasmids encoding Ub-X-(BiP, PDI and nsP4) or MX-RGS4 (X = Arg or Val) were transiently transfected into HEK293 cells. After 24 h, cells were treated with 10 µM MG132 and 100 nM thapsigargin for another 24 h. […]
(§2) Plasmids encoding the proteins were transiently transfected to HeLa cells for 24 h and stimulated with 5 µM MG132 plus 100 nM TG for another 24 h. […] Cell lysates were subjected to R-catcher pulldown, and bound proteins were detected by western blot analysis. c R-catcher pull-down assays to evaluate if the arginylation of FBNL1, SERPINH1, CLUS and PRDX4 is induced in response to MG132 plus thapsigargin. d X-peptide pulldown assays to confirm no interaction of R-catcher with Nt-Ala19 of SERPINH1 peptides and Nt-Trp38 of PRDX4 peptides. […] Bound GST-ZZ (N132D) was detected by immunoblotting. e Identification of arginylated sites employing mutational analysis. […]

R-catcher [2] = test: R-catcher pulldown of P1' site Gly mutants; format: binding, human; details: E20 SERPINH1, E30 (printed) PRDX4, D23 CLUS, D30 FBLN1 to Gly, Fig. 6e
Procedure: as §1, §2

R-catcher [3] = test: R-catcher pulldown of putative arginylated ER proteins, HeLa; format: binding, human; details: 5 µM MG132 plus 100 nM TG, RA competition, Fig. 6a
Procedure: For small-scale R-catcher pull-down assays, 300 µg of purified R-catcher was conjugated with 120 µl of Strep-Tactin sepharose resin by incubating overnight at 4 °C. To test R-catcher’s ability to capture known arginylated proteins, such as R-BiP, R-PDI, R-nsP4 and R-RGS4, plasmids encoding Ub-X-(BiP, PDI and nsP4) or MX-RGS4 (X = Arg or Val) were transiently transfected into HEK293 cells. After 24 h, cells were treated with 10 µM MG132 and 100 nM thapsigargin for another 24 h. Cells were harvested and lysed in hypotonic buffer and 300 µg total protein was incubate with 25 µl R-catcher-sepharose resin in binding buffer (20 mM HEPES pH 7.9, 0.05% Tween 20, 10% glycerol, 0.2 M KCl, protease inhibitor and phosphatase inhibitor) for 3 h with gentle rotation at 4 °C. After three washes with binding buffer, bound proteins were dissociated with 2 × SDS sample buffer and boiling at 100 °C and subjected to immunoblotting using anti-myc or flag antibodies.
Plasmids encoding the proteins were transiently transfected to HeLa cells for 24 h and stimulated with 5 µM MG132 plus 100 nM TG for another 24 h. Cell lysates were incubated with R-catcher immobilized on tactin beads for 3 h. After wash, bound proteins were eluted with 2 × SDS sample buffer followed by boiling at 100 °C for 10 min and visualized by western blot analysis. b R-catcher pulldown assays to validate ATE1-dependent arginylation of […]1, PRDX4, FBLN1 and CLUS. Plasmids encoding […]1, PRDX4, FBLN1 and CLUS were transiently transfected into + / + and ATE1^−/− MEFs for 24 h and stimulated with 5 µM MG132 plus 100 nM TG for another 9 h. Cell lysates were subjected to R-catcher pulldown, and bound proteins were detected by western blot analysis. c R-catcher pull-down assays to evaluate if the arginylation of FBNL1, SERPINH1, CLUS and PRDX4 is induced in response to MG132 plus thapsigargin. d X-peptide pulldown assays to confirm no interaction of R-catcher with Nt-Ala19 of SERPINH1 peptides and Nt-Trp38 of PRDX4 peptides. X-peptides where X is A19 (SignalP predicted P1’ site), E20 (next possible P1’ site predicted by PrediSi) or R19 (Arginylated form of Glu) for SERPINH1 and W38 (SignalP predicted P1’ site), E39 (next possible P1’ site predicted by PrediSi) or R38 (Arginylated form) for PRDX4. Biotinylated X-peptides immobilized on streptavidin agarose beads were incubated with affinity-purified GST-ZZ ([…]). Bound GST-ZZ (N132D) was detected by immunoblotting. e Identification of arginylated sites employing mutational analysis. Predicted P1’ sites of SERPINH1, PRDX4, CLUS and FBLN1 were substituted to Gly, and the inhibitory effect of the mutation on binding with R-catcher was examined by performing R-catcher pulldown assays

[4] = Identification of arginylation sites, GelNrich and in-gel digestion LC-MS/MS
Excerpt: Upon separation of the immunoprecipitated protein by SDS-PAGE and staining with Coomassie Blue, the corresponding protein band was excised, half of which was subjected to GelNrich and the other half to conventional in-gel digestion GelNrich is an N-terminal peptide enrichment method based on in-gel digestion. The method includes in-gel protein level labeling of primary amines using d6-acetic anhydride and post-digestion negative selection of labeled N-terminal peptide(s) using N-hydroxysuccinimide activated agarose beads. Peptides recovered from GelNrich or in-gel digestion were dried in a vacuum evaporator and reconstituted in 0.1% formic acid. An aliquot was injected from a cooled (10 °C) auto-sampler into a reversed-phase EASY-Spray column (25 cm × 75 μm, Thermo Fisher Scientific) on an Eksigent nanoLC-ultra 1D plus system (Danaher Corporation) at a flow rate of 300 nL/min. Prior to use, the column was equilibrated with 96% buffer A (0.1% formic acid in water) and 4% buffer B (0.1% formic acid in acetonitrile). The peptides were eluted with a linear gradient from 4 to 35% buffer B over 60 min and 35–80% buffer B over 2 min followed by an organic wash and aqueous re-equilibration at a flow rate of 300 nL/min with a total run time of 96 min. The HPLC system was coupled to a Q-Exactive mass spectrometer (Thermo Fisher Scientific) operated in a data-dependent acquisition (DDA) mode. […]

GST-ZZ122-175^N132D = GST-ZZ122-175^N132D pulldown from HeLa lysates (MG132 plus TG); format: binding, human; details: HeLa lysate, immunoblot
Excerpt: Using these lysates and purified GST tagged ZZ122-175^N132D (Supplementary Fig. 4A) immobilized on glutathione resin, we performed pulldown assays. […] In addition to pulling down R-BiP and R-CRT, GST-ZZ122-175^N132D was able to capture polyubiquitinated proteins, which were also disrupted by the D129A mutation and RA dipeptide competition (Supplementary Fig. 4B). This was expected because arginylated proteins are known to be ubiquitinated by E3 ligases containing a UBR box leading to their proteasomal degradation.
Fig. 4 ZZ122-175 ^N132D is capable of capturing known arginylated proteins in cells. a Western blot analysis to visualize arginylated BiP and CRT. […] N-terminally arginylated BiP and CRT were detected by immunoblotting using anti R-BiP and R-CRT antibodies. b GST pulldown assays to test the ability of wild type (WT) and N132D GST-ZZ in capturing cellular R-BiP and R-CRT. […] Pulled down R-BiP and R-CRT were detected using anti R-BiP and R-CRT antibodies. c Schematic drawing illustrating R-catcher. […] R-catcher bound arginylated proteins were detected by immunoblotting using anti-Myc or Flag antibody. e R-catcher pulldown assay to capture R-BiP and R-CRT induced in HeLa cells stimulated with MG132 plus TG in the absence or presence of 20 mM dipeptides TEXT PRINTED IN THE PICTURE: (C) R-catcher: ~ 9 kDa

Substance	capture by R-catcher, ATE1 dependence (R-catcher [1])	effect of Gly substitution of P1' site on interaction with R-catcher (R-catcher [2])	binding with R-catcher, Nt-Arg dependence (R-catcher [3])	arginylation detected by mass spectrometry [4]	pulldown by GST-ZZ122-175^N132D (GST-ZZ122-175^N132D)
CLU: clusterin	captured by R-catcher in an ATE1-dependent manner	significantly impaired their interaction with R-catcher; also recorded: abolished their binding with R-catcher	Nt-Arg-dependent binding with R-catcher	arginylation at the D23 residue	
R-BiP: Nt-arginylated BiP			bound R-catcher in an Nt-Arg-dependent manner		efficiently pull down
